One assay concerns BGC-823. The experiment in a line: Cytotoxicity against human BGC823 after 48 hrs by MTT assay. The class given is functional, cell-based. Conditions: BGC-823, 48 h.
The subject of a further assay is KB. The experiment in a line: Cytotoxicity against human KB after 48 hrs by MTT assay. Type of assay: functional, cell-based. A general note: Tetrazolium dyes change colour on reduction, which living cells bring about.
Assay [1] has as its system Bel-7402. The assay can be described thus: Ratio of cisplatin IC50 to compound IC50 for human Bel7402 cells. Type of assay: functional.
Assay [2] concerns Bel-7402. The experiment in a line: Cytotoxicity against human Bel7402 after 48 hrs by MTT assay. The class given is functional, cell-based. Particulars: Bel-7402, 48 h.
The subject of another assay is HL-60. The experiment in a line: Cytotoxicity against human HL60 after 48 hrs by MTT assay. Conditions: HL-60, 48 h. The class given is functional, cell-based.

Turning to `CCCCCCCCOc1cc(-c2c(C)nn(-c3ccc([N+](=O)[O-])cc3)c2C)cc(-c2c(C)nn(-c3ccc([N+](=O)[O-])cc3)c2C)c1`, the IC50 in the assay on BGC-823 came out at 8.4 µM; with KB, 6.31 µM; with Bel-7402 [2] it was 5.22 µM; in the assay with HL-60, 7.91 µM. Moreover, in the assay on Bel-7402 [1], the “Ratio IC50” value turned out to be 1.5.
Turning to `Cc1nn(-c2ccc([N+](=O)[O-])cc2)c(C)c1-c1cccc(-c2c(C)nn(-c3ccc([N+](=O)[O-])cc3)c2C)c1`, the IC50 with BGC-823 was found to be 11.9 µM; in the assay with KB it was 10.1 µM; in the assay on Bel-7402 [2] it was 11.8 µM; in the assay with HL-60 it was 10.6 µM.
`O=[N+]([O-])c1ccc(-n2cc(-c3ccncc3)cn2)cc1`: the IC50 with BGC-823 was 20.8 µM; in the assay on KB, 19.2 µM; in the assay on Bel-7402 [2], 23.2 µM; in the assay with HL-60, 17.8 µM.
With `Cc1nn(-c2ccc([N+](=O)[O-])cc2)c(C)c1-c1ccccc1-c1c(C)nn(-c2ccc([N+](=O)[O-])cc2)c1C`, the IC50 is 25.4 µM in the assay on BGC-823, 25.6 µM in the assay with KB, 19.9 µM with Bel-7402 [2] and 16.2 µM in the assay on HL-60.
For `O=[N+]([O-])c1ccc(-c2cnn(-c3ccc([N+](=O)[O-])cc3)c2)cc1` the same measures were 11.9 µM, 8.4 µM, 9.48 µM and 8.78 µM.
On the same counts, the results for `O=[N+]([O-])c1ccc(-n2cc(-c3ccc(C(F)(F)F)cc3)cn2)cc1` are 13.8 µM, 21.3 µM, 7.15 µM and 17.3 µM.
As to `O=[N+]([O-])c1ccc(-n2cc(-c3cc(C(F)(F)F)cc(C(F)(F)F)c3)cn2)cc1`, the IC50 came to 18.5 µM in the assay on BGC-823, 12 µM in the assay on KB, 7.39 µM with Bel-7402 [2] and 11.4 µM in the assay with HL-60.

For orientation: IC50 means the concentration needed to halve the response being measured. The low end stands for higher potency, the high end for lower potency.

These data come from ChEMBL document CHEMBL3044796, “Design, synthesis, and biologic evaluation of some novel N-arylpyrazole derivatives as cytotoxic agents” (Med Chem Res, 2013).
